Source: ChEMBL document CHEMBL1126861 (J Med Chem, 1993)
Where a SMILES comes first, the peptide text is derived from it.

How the values were obtained:
Mu-type opioid receptor = Mu-type opioid receptor (Rattus norvegicus, UniProt P33535); assay: Tested for binding affinity against mu opioid receptor fby displacing [3H]- DAMGO radioligand from rat brain membrane preparations
[1] = biological target: Delta-type opioid receptor (Rattus norvegicus, UniProt P33533); assay: Tested for binding affinity against delta opioid receptor by displacing [3H]- DSLET radioligand from rat brain membrane preparations
Sequence of Delta-type opioid receptor (P33533 whole entry): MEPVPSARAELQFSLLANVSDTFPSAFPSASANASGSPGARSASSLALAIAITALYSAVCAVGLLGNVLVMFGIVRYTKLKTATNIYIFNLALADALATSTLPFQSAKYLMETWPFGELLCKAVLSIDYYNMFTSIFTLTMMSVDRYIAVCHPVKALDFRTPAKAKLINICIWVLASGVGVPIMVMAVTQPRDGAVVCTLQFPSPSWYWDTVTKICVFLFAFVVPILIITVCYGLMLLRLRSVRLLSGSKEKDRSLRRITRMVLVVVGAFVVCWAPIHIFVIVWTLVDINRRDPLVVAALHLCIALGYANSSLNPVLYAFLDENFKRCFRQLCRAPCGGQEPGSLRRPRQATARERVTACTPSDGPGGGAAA

Sequence of Mu-type opioid receptor (P33535 whole entry): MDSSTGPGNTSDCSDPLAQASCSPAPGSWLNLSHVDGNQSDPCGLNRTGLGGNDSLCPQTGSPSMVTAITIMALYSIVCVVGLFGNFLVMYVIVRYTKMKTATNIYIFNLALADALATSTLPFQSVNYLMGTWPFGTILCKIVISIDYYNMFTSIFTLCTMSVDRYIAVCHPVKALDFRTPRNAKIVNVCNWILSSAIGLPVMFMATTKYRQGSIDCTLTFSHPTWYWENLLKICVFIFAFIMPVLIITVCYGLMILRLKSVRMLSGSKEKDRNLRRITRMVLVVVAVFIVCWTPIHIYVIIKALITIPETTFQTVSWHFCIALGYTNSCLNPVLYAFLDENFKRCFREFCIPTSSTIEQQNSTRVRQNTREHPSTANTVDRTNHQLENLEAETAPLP

N[C@@H](Cc1ccc(O)cc1)C(=O)N1Cc2ccccc2C[C@H]1C(=O)N[C@@H](Cc1ccccc1)C(=O)N[C@@H](Cc1ccccc1)C(=O)O (HELM PEPTIDE1{Y.[Tic].F.F}$$$$V2.0)
Ki (Mu-type opioid receptor): 3230 nM
Ki [1]: 0.308 nM

N[C@@H](Cc1ccc(O)cc1)C(=O)N1Cc2ccccc2C[C@H]1C(=O)N[C@@H](Cc1ccccc1)C(=O)O (HELM PEPTIDE1{Y.[Tic].F}$$$$V2.0)
Ki [1]: 1.94 nM

CC(C)[C@H](NC(=O)[C@H](CC(=O)O)NC(=O)[C@H](Cc1ccccc1)NC(=O)[C@@H](C)NC(=O)[C@@H](N)Cc1ccc(O)cc1)C(=O)N[C@H](C(=O)NCC(N)=O)C(C)C [DELTORPHIN C]
Ki (Mu-type opioid receptor): 3930 nM
Ki [1]: 6.43 nM

Oc1ccc2c3c1O[C@H]1c4[nH]c5ccccc5c4C[C@@]4(O)[C@@H](C2)N(CC2CC2)CC[C@]314 [NALTRINDOLE]
Ki [1]: 0.182 nM
